This is an account of results in patent publication US12162867B2, “Inhibitors of RNA helicase DHX9 and uses thereof” (ACCENT THERAPEUTICS, INC., priority 2022, dated 2024).

Holding throughout (type): cell-based
One test relates to LS411N cells. Put plainly: DHX9 cellular proliferation assay (CellTiter-Glo), LS411N (CRC-MSI). The settings on record: Homo sapiens, LS-411N, LS411N, performed at Pharmaron, read-out: LS411N (CRC-MSI-H) Antiproliferative IC50.
The subject of the next test is NCI-H747 cells. Put plainly: DHX9 cellular proliferation assay (CellTiter-Glo), NCI-H747 (CRC-MSS). The conditions noted are these: Homo sapiens, performed at Pharmaron, read-out: H747 (CRC-MSS) Antiproliferative IC50. In general terms: ATP-based viability assays read luminescence as a measure of living cells.
The subject of test [1] is circBRIP1 in HCT116 cells. Put plainly: DHX9 circBRIP1 cellular target engagement SYBR Green assay (qPCR). The settings on record: Homo sapiens, HCT-116, circBRIP1, HCT116 cells, read-out: DHX9 Cellular Target Engagement EC50. A general note: Real-time PCR tracks product formation cycle by cycle.

Read-outs that look alike come from different tables or passages of the source.

With `CS(=O)(=O)Nc1cc(Cl)cc(NC(=O)c2cnn(-c3ncccc3OCc3cncc(F)c3)c2)c1` [Example 186], the IC50 (as a rule, the point on the concentration scale where inhibition reaches its midpoint) was 2440 nM in the test on LS411N cells (CRC-MSI-H) and greater than 10000 nM in the test on NCI-H747 cells (NCI-H747, NCI-H747, CRC-MSS). In addition, in test [1] (SyBr assay (marked ^+)), the EC50 (usually the concentration needed to bring the measured effect to its halfway point) worked out at 161 nM.

With `Cc1ccc(-n2cc(C(=O)Nc3cc(Br)cc(NS(C)(=O)=O)c3)cn2)nc1` [Example 42], the IC50 with LS411N cells (CRC-MSI-H) is 917 nM; in the test on NCI-H747 cells (NCI-H747, NCI-H747, CRC-MSS), greater than 10000 nM. For the same molecule, the EC50 in test [1] (SyBr assay (marked ^+)) was 308 nM.

In the case of `CS(=O)(=O)Nc1cc(Cl)cc(NC(=O)c2cc(-c3ncc(F)cc3OCc3cncc(F)c3)cs2)c1` [Example 225], the IC50 is 43.9 nM with LS411N cells (CRC-MSI-H) and greater than 10000 nM with NCI-H747 cells (NCI-H747, NCI-H747, CRC-MSS). In test [1] (SyBr assay (marked ^+)), the EC50 is 19.9 nM.

On to `Cc1sc(C(=O)Nc2cc(Br)cc(NS(C)(=O)=O)c2)cc1-c1ccccn1` [Example 23], for which the IC50 was 53.1 nM with LS411N cells (CRC-MSI-H) and greater than 10000 nM with NCI-H747 cells (NCI-H747, NCI-H747, CRC-MSS). Besides, in test [1] (SyBr assay (marked ^+)), the EC50 turned out to be 54.2 nM.

On to `Cn1cc(C(=O)Nc2cc(Cl)cc(NS(C)(=O)=O)c2)cc1-c1ncc(F)cn1` [Example 171, N-(3-chloro-5-(methylsulfonamido)phenyl)-5-(5-fluoropyrimidin-2-yl)-1-methyl-1H-pyrrole-3-carboxamide], for which the IC50 in the test with LS411N cells (CRC-MSI-H) is 372 nM; in the test on NCI-H747 cells (NCI-H747, NCI-H747, CRC-MSS), greater than 10000 nM. Also, the EC50 in test [1] (SyBr assay (marked ^+)) came to 95.7 nM.

Regarding `Cn1cc(C(=O)Nc2cc(Cl)cc(NS(C)(=O)=O)c2)cc1-c1ncccn1` [Example 82], the IC50 in the test on LS411N cells (CRC-MSI-H) was 134 nM; in the test on NCI-H747 cells (NCI-H747, NCI-H747, CRC-MSS) it was greater than 10000 nM. For the same molecule, the EC50 in test [1] (SyBr assay (marked ^+)) is 73.2 nM.

In the case of `CCOc1cnn(-c2cc(C(=O)Nc3cc(Cl)cc(NS(C)(=O)=O)c3)sc2C)c1` [Example 438], the IC50 in the test on LS411N cells was 508 nM; in the test on NCI-H747 cells (NCI-H747, NCI-H747), greater than 10000 nM. The EC50 in test [1] (^+ SyBr assay was used) amounted to 91.2 nM.

In the case of `CS(=O)(=O)Nc1cc(Cl)cc(NC(=O)c2cc(-c3ncccc3Nc3ncccn3)cs2)c1` [Example 237], the IC50 in the test on LS411N cells (CRC-MSI-H) is 249 nM; in the test with NCI-H747 cells (NCI-H747, NCI-H747, CRC-MSS) it was 3780 nM. For the same molecule, the concentration for a half-maximal effect (EC50) in test [1] (SyBr assay (marked ^+)) came out at 1910 nM.

For the molecule `COc1cc2cc(C(=O)Nc3cc(Cl)cc(NS(C)(=O)=O)c3)sc2cc1OC` [Example 291], the IC50 is 352 nM with LS411N cells (CRC-MSI-H) and greater than 10000 nM with NCI-H747 cells (NCI-H747, NCI-H747, CRC-MSS). Besides, in test [1] (SyBr assay (marked ^+)), the EC50 came to 803 nM.

`COc1cc(F)cnc1-c1cc(C(=O)Nc2cc(Cl)cc(NS(C)(=O)=O)c2)cn1C` [Example 568, N-(3-chloro-5-methanesulfonamidophenyl)-5-(5-fluoro-3-methoxypyridin-2-yl)-1-methylpyrrole-3-carboxamide]: the IC50 was 349 nM in the test on LS411N cells and greater than 10000 nM in the test with NCI-H747 cells (NCI-H747, NCI-H747). The EC50 in test [1] (^+ SyBr assay was used) was 57.5 nM.

With `CS(=O)(=O)Nc1cc(Cl)cc(NC(=O)c2cc(-c3ccc(F)cn3)n(CC(F)F)c2)c1` [Example 286], the IC50 in the test with LS411N cells (CRC-MSI-H) was 131 nM; in the test on NCI-H747 cells (NCI-H747, NCI-H747, CRC-MSS), greater than 10000 nM. Moreover, in test [1] (SyBr assay (marked ^+)), the EC50 was found to be 2630 nM.

Turning to `Cc1cc(C(=O)Nc2cc(Cl)cc(NS(C)(=O)=O)c2)cn1-c1ncc(N2CC(F)(F)C2)cn1` [Example 418], the IC50 in the test with LS411N cells was 139 nM; in the test with NCI-H747 cells (NCI-H747, NCI-H747), greater than 10000 nM. Moreover, in test [1] (^+ SyBr assay was used), the EC50 was found to be 67.4 nM.

Regarding `Cc1cc(C(=O)Nc2cc(Cl)cc(NS(C)(=O)=O)c2)cn1-c1ccc(N2CCN(C(=O)C(C)C)CC2)cn1` [Example 283], the IC50 in the test with LS411N cells (CRC-MSI-H) is 92.3 nM; in the test on NCI-H747 cells (NCI-H747, NCI-H747, CRC-MSS), greater than 10000 nM. In test [1] (SyBr assay (marked ^+)), the EC50 came out at 131 nM.

For the molecule `Cn1cc(C(=O)Nc2cc(Cl)cc(NS(C)(=O)=O)c2)cc1-c1ncc(N2CCC2)cn1` [Example 521], the IC50 was 69 nM with LS411N cells and greater than 10000 nM with NCI-H747 cells (NCI-H747, NCI-H747). In addition, the EC50 in test [1] (^+ SyBr assay was used) worked out at 35.1 nM.

For `Cc1cccnc1-c1cc(C(=O)Nc2cc(Cl)cc(NS(C)(=O)=O)c2)cn1C` [Example 81], the IC50 is 1070 nM in the test with LS411N cells (CRC-MSI-H) and greater than 10000 nM with NCI-H747 cells (NCI-H747, NCI-H747, CRC-MSS). The EC50 in test [1] (SyBr assay (marked ^+)) turned out to be 290 nM.

As for `COc1cnn(-c2cc(C(=O)Nc3cc(Cl)cc(NS(C)(=O)=O)c3)sc2C)c1` [Example 436], the IC50 with LS411N cells was 272 nM; in the test with NCI-H747 cells (NCI-H747, NCI-H747) it was greater than 10000 nM. In addition, in test [1] (^+ SyBr assay was used), the EC50 was 89.5 nM.

`Cc1sc(C(=O)Nc2cc(Br)cc(NS(C)(=O)=O)c2)cc1-c1ccccc1O` [Example 20]: the IC50 was found to be 609 nM in the test on LS411N cells (CRC-MSI-H) and 7220 nM with NCI-H747 cells (NCI-H747, NCI-H747, CRC-MSS). In addition, in test [1] (SyBr assay (marked ^+)), the EC50 came out at 100 nM.

Consider `Cc1sc(C(=O)Nc2cc(Cl)cc(NS(C)(=O)=O)c2)cc1-c1ncccc1O` [Example 227], for which the IC50 was 879 nM in the test on LS411N cells (CRC-MSI-H) and greater than 10000 nM with NCI-H747 cells (NCI-H747, NCI-H747, CRC-MSS). Moreover, the EC50 in test [1] (SyBr assay (marked ^+)) came to 40.3 nM.

As to `Cc1sc(C(=O)Nc2cc(Cl)cc(NS(C)(=O)=O)c2)cc1-c1ncc(OC(F)F)cn1` [Example 345], the IC50 turned out to be 362 nM in the test with LS411N cells (CRC-MSI-H) and 8450 nM in the test with NCI-H747 cells (NCI-H747, NCI-H747, CRC-MSS). Besides, in test [1] (SyBr assay (marked ^+)), the EC50 came out at 108 nM.

In the case of `Cc1cc(C(=O)Nc2cc(Cl)cc(NS(C)(=O)=O)c2)cn1-c1ncccc1O` [Example 281], the IC50 with LS411N cells (CRC-MSI-H) is 367 nM; in the test with NCI-H747 cells (NCI-H747, NCI-H747, CRC-MSS), 7340 nM. Also, the EC50 in test [1] (SyBr assay (marked ^+)) was 483 nM.

In the case of `Cc1cc(C(=O)Nc2cc(Cl)cc(NS(C)(=O)=O)c2)cn1-c1ncc(N2CCC2)cn1` [Example 398], the IC50 with LS411N cells is 116 nM; with NCI-H747 cells (NCI-H747, NCI-H747), greater than 10000 nM. For the same molecule, the EC50 in test [1] (^+ SyBr assay was used) turned out to be 41.1 nM.

On to `Cc1cc(C(=O)Nc2cc(Cl)cc(NS(C)(=O)=O)c2)cn1-c1ccc(N2CCOCC2)cn1` [Example 93], for which the IC50 was 253 nM with LS411N cells (CRC-MSI-H) and greater than 10000 nM with NCI-H747 cells (NCI-H747, NCI-H747, CRC-MSS). Besides, in test [1] (SyBr assay (marked ^+)), the EC50 was determined as 30 nM.

As for `COc1cnc(-c2cc(C(=O)Nc3cc(Cl)cc(NS(C)(=O)=O)c3)sc2C)nc1` [Example 341], the IC50 with LS411N cells (CRC-MSI-H) was 122 nM; in the test with NCI-H747 cells (NCI-H747, NCI-H747, CRC-MSS), greater than 10000 nM. Besides, the EC50 in test [1] (SyBr assay (marked ^+)) is 34.6 nM.

Regarding `Cc1sc(C(=O)Nc2cc(Cl)cc(NS(C)(=O)=O)c2)cc1-c1ncccc1OCc1cncc(F)c1` [Example 621], the IC50 with LS411N cells was 8.7 nM; in the test on NCI-H747 cells (NCI-H747, NCI-H747), greater than 10000 nM. Besides, the EC50 in test [1] (^+ SyBr assay was used) turned out to be 2 nM.

With `CS(=O)(=O)Nc1cc(Cl)cc(NC(=O)c2cc(-c3ncccn3)cs2)c1` [Example 26], the IC50 in the test with LS411N cells (CRC-MSI-H) is 217 nM; with NCI-H747 cells (NCI-H747, NCI-H747, CRC-MSS), greater than 10000 nM. Also, the EC50 in test [1] (SyBr assay (marked ^+)) stood at 60.9 nM.

With `CS(=O)(=O)Nc1cc(Br)cc(NC(=O)c2cc(-c3cnccn3)cs2)c1` [Example 18], the IC50 was 546 nM in the test on LS411N cells (CRC-MSI-H) and greater than 10000 nM in the test with NCI-H747 cells (NCI-H747, NCI-H747, CRC-MSS). Moreover, the EC50 in test [1] (SyBr assay (marked ^+)) turned out to be 98.4 nM.

As for `Cn1cc(C(=O)Nc2cc(Cl)cc(NS(C)(=O)=O)c2)cc1-c1ncccc1OCc1cncc(F)c1` [Example 174, N-(3-chloro-5-(methylsulfonamido)phenyl)-5-(3-((5-fluoropyridin-3-yl)methoxy)pyridin-2-yl)-1-methyl-1H-pyrrole-3-carboxamide], the IC50 with LS411N cells (CRC-MSI-H) is 33.3 nM; in the test on NCI-H747 cells (NCI-H747, NCI-H747, CRC-MSS), greater than 10000 nM. Besides, the EC50 in test [1] (SyBr assay (marked ^+)) turned out to be 7 nM.

For the molecule `Cc1cc(C(=O)Nc2cc(Cl)cc(NS(C)(=O)=O)c2)cn1-c1ccc(N2CCN(C)C(=O)C2)cn1` [Example 94], the IC50 in the test with LS411N cells (CRC-MSI-H) was 3200 nM; with NCI-H747 cells (NCI-H747, NCI-H747, CRC-MSS) it was greater than 10000 nM. For the same molecule, the EC50 in test [1] (SyBr assay (marked ^+)) was 292 nM.

On to `Cc1cccnc1-n1cc(C(=O)Nc2cc(Cl)cc(NS(C)(=O)=O)c2)cc1C` [Example 130], for which the IC50 is 1160 nM with LS411N cells (CRC-MSI-H) and greater than 10000 nM with NCI-H747 cells (NCI-H747, NCI-H747, CRC-MSS). Also, the EC50 in test [1] (SyBr assay (marked ^+)) was found to be 489 nM.

For the molecule `Cc1cc(C(=O)Nc2cc(Cl)cc(NS(C)(=O)=O)c2)cn1-c1ncccc1OCC1CC1` [Example 713], the IC50 was 105 nM with LS411N cells and greater than 10000 nM in the test on NCI-H747 cells (NCI-H747, NCI-H747). In test [1] (^+ SyBr assay was used), the EC50 was 105 nM.

With `CS(=O)(=O)Nc1cc(Cl)cc(NC(=O)c2cnn(-c3ncc(F)cc3OCc3cccc(F)c3)c2)c1` [Example 202], the IC50 with LS411N cells (CRC-MSI-H) is 111 nM; with NCI-H747 cells (NCI-H747, NCI-H747, CRC-MSS), 8560 nM. Besides, the EC50 in test [1] (SyBr assay (marked ^+)) came to 103 nM.
